Paper PMC7504721, “Targeting the Initiator Protease of the Classical Pathway of Complement Using Fragment-Based Drug Discovery” (Molecules, 2020)

Tested on: lectin pathway
Assay: Lectin pathway-specific ELISA (mannan, C1q-depleted serum, C4b detection)
Format: biochemical, human
Settings: single dose 500 µM, triplicate, 2% C1q-depleted serum
Description: Figure 5 Selectivity and mechanistic analysis of CMP-1611 and CMP-1696. (A) Chemical structure of CMP-1611. (B) Chemical structure of CMP-1696. (C) Dose-dependent inhibition by CMP-1611 and CMP-1696 in a classical pathway-specific ELISA. Data were fit with GraphPad Prism using non-linear regression with a log(inhibitor) vs. response model. […] (D) Complement pathway selectivity of CMP-1611 and CMP-1696. Compounds were assessed for their ability to inhibit activation of complement via the lectin and alternative pathways using single doses of 500 µM compound in triplicate. To ensure only lectin pathway activation, 2% (v/v) C1q-depleted serum (CompTech) was used and mannan was used as the activator. To match serum sources and amounts for this assay, the classical pathway assays were repeated here using serum from CompTech at 2% (v/v) final concentration. Alternative pathway activation assays were performed using 20% (v/v) serum (CompTech), alternative pathway buffers, and C3b detection (see Methods and Materials for details). […]
To carry out classical pathway ELISA-based inhibition assays, IgM was dissolved in coating buffer (100 mM Na2CO3/NaHCO3, pH 9.6) to a final concentration of 3 µg/mL and was dispensed into 96-well plates at 100 µL per well. […] The reaction was stopped with 50 µL of 0.16 M sulfuric acid, and the plate was read at 450 nm using an EnSight multimode plate reader (Perkin-Elmer). […]

Compound: CN(C)c1cc(N2CCCC(N)C2)ncn1 (centres unmarked) [CMP-1611]
- inhibition of lectin pathway activation: no effect

Compound: COCc1nc(-c2ccc(OC3CNC3)cc2)no1 [CMP-1696]
- inhibition of lectin pathway activation: blocked
